From patent US20160022699A1, “COMBINATIONS AND METHODS FOR TREATING NON AGE-RELATED HEARING IMPAIRMENT IN A SUBJECT” (Washington University, priority 2012, published 2016)
Entries after “also recorded” stand apart in the source; their conditions may differ.

Assays:
[1] = tested on: noise-induced hearing loss (NIHL) in C57BL/6J mice; test: NIHL treatment protocol: drug i.p. 24 hours after white noise (110 dB SPL, 30 min), ABR threshold shifts; details: for ED50: Mus musculus, ip, 24 h, read-out: median effective dose (ED50) to treat noise-induced hearing loss; for drug effect on ABR threshold shift (two-way ANOVA), treatment / gender effect on ABR threshold shift (two-way ANOVA), treatment: 24 hours after noise
[2] = tested on: noise-induced hearing loss (NIHL) in C57BL/6J mice; test: NIHL prevention protocol: drug i.p. two hours before white noise (110 dB SPL, 30 min), ABR thresholds / threshold shifts two weeks after noise; details: for ED50: Mus musculus, ip, 2 h, read-out: median effective dose (ED50) to prevent noise-induced hearing loss; for drug effect on ABR threshold shift (two-way ANOVA), prevention: all dosages
NIHL in mice [3] = details: cited from earlier work; for prophylactic and therapeutic effects against NIHL: drinking water, three weeks before noise
NIHL in mice [4] = details: intraperitoneal injections; cited from earlier work
cultured auditory cells = details: cited from earlier work

C[C@H]1C[C@@H]2[C@H]([C@@H](O)C[C@@]3(C)[C@H]2CC[C@]3(O)C(=O)CO)[C@@]2(C)C=CC(=O)C=C12 [methylprednisolone]
ED50 [1]: 95.6 mg/kg | ED50 [2]: 525 mg/kg

C[C@@H]1C[C@H]2[C@@H]3CCC4=CC(=O)C=C[C@]4(C)[C@@]3(F)[C@@H](O)C[C@]2(C)[C@@]1(O)C(=O)CO [dexamethasone]
ED50 [1]: 96.3 mg/kg | ED50 [2]: 39.4 mg/kg

CCC1(C)CC(=O)NC1=O (stereo not drawn) [ethosuximide]
prophylactic and therapeutic effects against NIHL (NIHL in mice [3]): both prophylactic and therapeutic effects | drug effect on ABR threshold shift (two-way ANOVA), treatment [1]: statistically significant drug effects | gender effect on ABR threshold shift (two-way ANOVA), treatment [1]: the gender effect was also significant; also recorded: gender difference was also observed | ED50 [1]: 243 mg/kg | effect on NIHL (Tukey/Kramer post-hoc) ([2]; 60 mg/kg, two hours before noise): significantly enhanced NIHL | effect on NIHL (Tukey/Kramer post-hoc) ([2]; 90 mg/kg, two hours before noise): significantly protected against NIHL | effect on NIHL (Tukey/Kramer post-hoc) ([2]; 130 to 260 mg/kg, two hours before noise): reduced to no significance | median effective dose (ED50) to prevent noise-induced hearing loss ([2]; i.p. two hours before noise, calculated with CompuSyn (Chou-Talalay)): no ED50; also recorded: could not be obtained | gender effect on ABR threshold shift (two-way ANOVA), prevention ([2]; two hours before noise): showed no gender differences | drug effect on ABR threshold shift (two-way ANOVA), prevention ([2]; two hours before noise): statistically significant main effect of drug concentrations

NS(=O)(=O)Cc1noc2ccccc12 [zonisamide]
drug effect on ABR threshold shift (two-way ANOVA), treatment [1]: no statistically significant drug effects | gender effect on ABR threshold shift (two-way ANOVA), treatment [1]: the gender had no effects as well | ED50 [1]: 2540 mg/kg | ED50 [2]: 125 mg/kg | dosage dependence of NIHL prevention ([2]; two hours before noise): clear dosage-dependent prevention of NIHL | gender effect on ABR threshold shift (two-way ANOVA), prevention ([2]; two hours before noise): the gender had no effects; also recorded: showed no gender differences | drug effect on ABR threshold shift (two-way ANOVA), prevention ([2]; two hours before noise): statistically significant drug effects

CN1C(=O)OC(C)(C)C1=O [trimethadione]
prophylactic and therapeutic effects against NIHL (NIHL in mice [3]): both prophylactic and therapeutic effects | gender dependence of therapeutic effect against NIHL (NIHL in mice [3]; mouse, in vivo): observed only in male mice | outer hair cell (OHC) protection (NIHL in mice [3]; mouse, in vivo): OHC protection was observed

COCC(=O)O[C@]1(CCN(C)CCCc2nc3ccccc3[nH]2)CCc2cc(F)ccc2[C@@H]1C(C)C [mibefradil]
NIHL prophylactic function (NIHL in mice [4]): no NIHL prophylactic functions

Fc1ccc(C(c2ccc(F)cc2)N2CCN(C/C=C/c3ccccc3)CC2)cc1 [flunarizine]
NIHL prophylactic function (NIHL in mice [4]): no NIHL prophylactic functions | cisplatin-induced cell death (cultured auditory cells): inhibit cisplatin-induced death of cultured auditory cells
